Experimental data as given in patent US20190352276A1, “INHIBITORS OF BRUTON'S TYROSINE KINASE” (Joint Stock Company "Biocad", priority 2016, published 2019).

How the values were obtained:
[1] = Chemical stability in artificial gastric fluid (SGF without enzymes); conditions: 10 μM in SGF without enzymes, pH=1.4, 37° C.
[2] = system: Z-138 (mantle cell lymphoma); assay: Antiproliferative activity, Z-138 cells (Alamar Blue); format: cell-based; conditions: Homo sapiens, Table 10, 72 h, average of several tests
Method in brief: (§1)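 Cells (~3*10^4 per well) in RPMI-1640 with 10% FBS and gentamicin were exposed to diluted compounds (DMSO <1%) for 72 h at 37 °C, 5% CO2. Alamar Blue was then added for 14-16 h, and fluorescence was read at Ex 540/Em 590 nm. IC50 came from a four-parameter logistic fit.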

[3] = system: DOHH2 (follicular lymphoma); assay: Antiproliferative activity, DOHH2 cells (Alamar Blue); format: cell-based; conditions: Homo sapiens, DOHH-2, Table 10, 72 h, average of several tests
Method: Antiproliferative activity of BTK inhibitors was measured in cell-based bioassay on B-cells cultures: Mino (mantle cell lymphoma, ATCC® CRL-3000™), Z-138 (mantle cell lymphoma, ATCC® CRL-3001™) and DOHH2 (follicular lymphoma, Creative Bioarray CSC-C0219) using cell viability reagent Alamar Blue (Invitrogen, #DAL 1100). Cells were cultured in 10% FB S-supplemented (HyClone, #SH3008803/Gibco, #16140-071) RPMI-1640 (PanEco, #S330p) for at least 1 passage after thawing, washed with PBS and passaged in 96-well culture plates (Corning, #3599) with growth medium with 10% FBS (HyClone, #SH3008803/Gibco, #16140-071) and antibiotic (50 μg/ml of gentamicin (Biolot, #1.3.16))≈3*10^4 cells in 50 μl of medium per well.
The compounds were dissolved in DMSO and diluted with the assay medium to final concentrations ranging from […]. 150 μl of each diluted compound were then added to each well (final concentration of DMSO was less than 1%) and incubated at 37° C. in an incubator under 5% of CO2 for 72 h. After incubation, 20 μl of Alamar Blue reagent (Invitrogen, #DAL1100) were added to each well. The plates were shaked on an orbital shaker (Biosan, Latvia) and then incubated for 14-16 hours at 37° C. in the incubator.
The number of living cells were estimated, measuring the fluorescence signal at the excitation wavelength (REx) of 540 nm and the emission wavelength (λEm) of 590 nm on a microplate reader (Tecan Infinite M200Pro, Switzerland).
For each compound, IC50 was calculated using Magellan 7.2 software (Tecan, Switzerland) approximating experimental points by four-parameter logistic model with the optimization by Levenberg-Marquardt.

[4] = General cytotoxicity on HepG2 cells (CC50; therapeutic index CC50 HepG2/IC50 Mino); format: cell-based; conditions: human, HepG2 cells (hepatocellular carcinoma); Table 10; 72 hours, Alamar Blue; average of several tests
Method in brief: (§2)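 Cells seeded at 2*10^4 per well in DMEM, compounds added after 24 h at 200 μM to 4 μM final and incubated 72 h. Viability read with Alamar Blue to derive CC50; therapeutic index is CC50 (HepG2) divided by IC50 (Mino).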

[5] = system: HepG2 cells (hepatocellular carcinoma); assay: as above; format: cell-based; conditions: Table 10; therapeutic index
Method in brief: as §2

[6] = system: Mino (mantle cell lymphoma); assay: Antiproliferative activity, Mino cells (Alamar Blue); format: cell-based; conditions: Homo sapiens, Table 10, 72 h, average of several tests
Method in brief: as §1

[7] = Stability in human blood plasma; conditions: 10 μM in pooled human blood plasma, incubated 4 hours at 37° C.
[8] = Permeability through the monolayer of Caco-2 cells; format: in vitro ADME; conditions: human; for Papp A→B at 2 h, 10 μM / Papp B→A at 2 h, 10 μM: 2 h at 37° C.; for efflux ratio at 2 h, 10 μM: read-out: efflux (Papp B-A/Papp A-B)
From the text: Assessment of permeability through the monolayer of Caco-2 cells allows to evaluate the ability of the candidate compounds to penetrate through biological membranes by active and passive transport.
Caco-2, the cells of the intestinal epithelium, had been cultured in transwell plate inserts with the filters (with pores of 0.4 μm, BD Falcon with High Density, #353495) for 21 days, and then the integrity of the monolayer were estimated with Lucifer Yellow dye (Sigma-Aldrich, USA) by standard protocol. When setting the A→B transfer, solutions of test substances were added in a buffer with pH 6.5 (Hanks solution, 10 mM HEPES, 15 mM glucose solution) with the concentration of 10 μM into the upper chamber; the lower chamber was filled with a buffer with pH 7.4 (Hanks solution, 10 mM HEPES, 15 mM glucose solution, 1% BSA). When setting B→A transfer, the upper chamber was filled with the buffer with pH 6.5, and solutions of the test substances were added in the buffer with pH 7.4 at the concentration of 10 μM in the lower chamber. Propranolol was used as a control substance (as it has high permeability).
We used gradient elution (1 mL/min flow rate). We determined the areas of peaks corresponding to the compounds. On the basis of peak areas in the calibration standards we determined the concentration of compound in the initial solution and in the samples from the wells of the upper and lower chambers.
Papp, permeability through the cell layer, was calculated using the following formula:
Papp=(C(t)*V)/(C(0)*t*Area), where
Papp is the effective constant of permeability, m/s V is the volume of solution (0.8 ml in A→B test, 0.2 ml in B→A test), ml Area is the surface area of the membrane (0.33 cm^2), cm^2 t is the time of incubation (7200 sec), sec C(0) is the concentration of the initial solution, μM C(t) is the concentration of the solution after 2 hours (the concentration in the sample from the well of the lower chamber in A→B test; the concentration in the sample from the well of the top chamber in B→A test), μM
The value was calculated with the following formula:
efflux=Papp B-A/Papp A-B, where
Papp A-B is the value of the permeability in the direct test (A→B); Papp B-A is the value of the permeability in the backward test in (B→A).

Compound	Amount of substance in the sample in % (chemical stability) [1] [%]	IC50 [2] [µM]	IC50 [3] [µM]	CC50 at 72 h [4] [µM]	CC50 (HepG2)/IC50 (Mino) [5]	IC50 [6] [µM]	Amount of substance in the sample, % (stability in human blood plasma) [7] [%]	Papp A→B at 2 h, 10 μM [8] [×10⁻⁶ cm/s]	Papp B→A at 2 h, 10 μM [8] [×10⁻⁶ cm/s]	efflux ratio at 2 h, 10 μM [8]
CC#CC(=O)N1CCC[C@H]1Cn1nc(-c2ccc(Oc3ccncc3)cc2)c2cncc(Cl)c21 [BCD-BTK-259, (S)-1-(2-((7-chloro-3-(4-(pyridin-4-yloxy)phenyl)-1H-pyrazolo[4,3-c]pyridin-1-yl)methyl)pyrrolidin-1-yl)but-2-yn-1-one]	100	27.5	17	47.6	2.91	16.3	90.7			
C=CC(=O)N1CCC[C@@H](n2nc(-c3ccc(Oc4ccncc4)cc3)c3cncc(F)c32)C1 [BCD-BTK-211, (R)-1-(3-(7-fluoro-3-(4-(pyridin-4-yloxy)phenyl)-1H-pyrazolo[4,3-c]pyridin-1-yl)piperidin-1-yl)prop-2-en-1-one]		17.3	23	45.2	7.97	5.67	94.8	19.2	3.55	0.18
C=CC(=O)N1CCC[C@@H](n2nc(-c3ccc(-n4ccc(=O)cc4)cc3F)c3cncc(Cl)c32)C1 [BCD-BTK-204, (R)-1-(4-(1-(1-acryloylpiperidin-3-yl)-7-chloro-1H-pyrazolo[4,3-c]pyridin-3-yl)-3-fluorophenyl)pyridin-4(1H)-one]		20.9	23.5	62	2.95	21	91.9			
C=CC(=O)N1CCC[C@@H](n2nc(-c3cnc(C(=O)Nc4cccc(F)n4)nc3)c3cncc(Cl)c32)C1 [BCD-BTK-277, (R)-5-(1-(1-acryloylpiperidin-3-yl)-7-chloro-1H-pyrazolo[4,3-c]pyridin-3-yl)-N-(6-fluoropyridin-2-yl)pyrimidine-2-carboxamide]	99.8	30.1	20.6	41.9	2.33	17.9				
C=CC(=O)N1CCC[C@@H](n2nc(-c3ccc(Oc4ccncc4C#N)cc3)c3c(N)ncc(Cl)c32)C1 [BCD-BTK-232, (R)-4-(4-(1-(1-acryloylpiperidin-3-yl)-4-amino-7-chloro-1H-pyrazolo[4,3-c]pyridin-3-yl)phenoxy)nicotinonitrile]	95.9	10.8		31.1	2.04	15.3	88.6	6.27	3.58	0.57
CC#CC(=O)N1CC(Cn2nc(-c3ccc(Oc4ccncc4)cc3)c3cncc(Cl)c32)C1 [BCD-BTK-261, 1-(3-((7-chloro-3-(4-(pyridin-4-yloxy)phenyl)-1H-pyrazolo[4,3-c]pyridin-1-yl)methyl)azetidin-1-yl)but-2-yn-1-one]	100	5.01		8.33	1.95	4.27	100.0	8.3	0.95	0.11
C=CC(=O)N1CCC[C@@H](n2nc(-c3ccc(Oc4ccncc4C#N)cc3)c3cncc(C#N)c32)C1 [BCD-BTK-213, (R)-1-(1-acryloylpiperidin-3-yl)-3-(4-(3-cyanopyridin-4-yloxy)phenyl)-1H-pyrazolo[4,3-c]pyridine-7-carbonitrile]		9.7	19.7	> 100	>31.3	3.19		8.39	5.17	0.62
C=CC(=O)N1CCC[C@@H](n2nc(-c3ccc(-n4ccc(=O)cc4)c(F)c3)c3cncc(Cl)c32)C1 [BCD-BTK-205, (R)-1-(4-(1-(1-acryloylpiperidin-3-yl)-7-chloro-1H-pyrazolo[4,3-c]pyridin-3-yl)-2-fluorophenyl)pyridin-4(1H)-one]		24.9	20.2	57.2	3.45	16.6	88.6			
C=CC(=O)N1CCC[C@@H](n2nc(-c3ccc(Oc4cccnc4C#N)cc3)c3cncc(C#N)c32)C1 [BCD-BTK-216, (R)-1-(1-acryloylpiperidin-3-yl)-3-(4-(2-cyanopyridin-3-yloxy)phenyl)-1H-pyrazolo[4,3-c]pyridine-7-carbonitrile]		12.1	9.52	40.1	18.77	2.14	80.4	29.6	8.72	0.29
C=CC(=O)N1CCC[C@@H](n2nc(-c3ccc(C(=O)Nc4cc(C(F)(F)CCC)ccn4)cc3)c3cncc(C#N)c32)C1 [BCD-BTK-268, (R)-4-(1-(1-acryloylpiperidin-3-yl)-7-cyano-1H-pyrazolo[4,3-c]pyridin-3-yl)-N-(4-(1,1-difluorobutyl)pyridin-2-yl)benzamide]	99.3	78.3	26.6	> 100	>9.69	10.3	91.0			
C=CC(=O)N1CCC[C@@H](n2nc(-c3ccc(C(=O)Nc4cc(C(F)(F)F)ccn4)cc3)c3cncc(C#N)c32)C1 [BCD-BTK-221, 4-{7-cyano-1-[1-(prop-2-enoyl)piperidin-3-yl]-1H-pyrazolo[4,3-c]pyridin-3-yl}-N-[4-(trifluoromethyl)pyridin-2-yl]benzamide]	91.3	4.98	3.05	5.32	0.51	10.5	80.5			
